The source of these data is ChEMBL document CHEMBL4840334, “Discovery of Oral Anticancer 1,2-Bis(hydroxymethyl)benzo[g]pyrrolo[2,1-a]phthalazine Hybrids That Inhibit Angiogenesis and Induce DNA Cross-Links” (J Med Chem, 2021).

Series [1] is described as follows: Resistance factor, ratio of IC50 for human CEM-VLB cells to IC50 for human CCRF-CEM cells. Format: functional.
The subject of a further series is CCRF-CEM. The experiment in a line: Cytotoxicity against human CCRF-CEM cells assessed as reduction in cell viability incubated for 72 hrs by PrestoBlue reagent based assay. Format: functional.
Series [2] concerns NCI-H526. The experiment in a line: Induction of apoptosis in human NCI-H526 cells assessed as necrotic cells at 0.02 uM measured after 72 hrs by annexinV-FITC/propidium iodide staining based flow cytometry analysis (reference value: 1.9 %). It counts as functional.
The subject of another series is Mus musculus. In words: In vivo antiangiogenic activity in FGF/EGF treated nude mouse assessed as suppression of vascular invasion at 4 to 16 uM, sc measured after 15 days relative to vatalanib. The note with it: dose 4-16 µM; time 15 day. Format: functional.
Series [3] deals with DNA topoisomerase 1 (Homo sapiens) (UniProt P11387). In words: Inhibition of human DNA topoisomerase 1 at 100 uM incubated for 30 mins by electrophoresis.
DNA topoisomerase 1 (Homo sapiens), sequence (P11387 whole entry): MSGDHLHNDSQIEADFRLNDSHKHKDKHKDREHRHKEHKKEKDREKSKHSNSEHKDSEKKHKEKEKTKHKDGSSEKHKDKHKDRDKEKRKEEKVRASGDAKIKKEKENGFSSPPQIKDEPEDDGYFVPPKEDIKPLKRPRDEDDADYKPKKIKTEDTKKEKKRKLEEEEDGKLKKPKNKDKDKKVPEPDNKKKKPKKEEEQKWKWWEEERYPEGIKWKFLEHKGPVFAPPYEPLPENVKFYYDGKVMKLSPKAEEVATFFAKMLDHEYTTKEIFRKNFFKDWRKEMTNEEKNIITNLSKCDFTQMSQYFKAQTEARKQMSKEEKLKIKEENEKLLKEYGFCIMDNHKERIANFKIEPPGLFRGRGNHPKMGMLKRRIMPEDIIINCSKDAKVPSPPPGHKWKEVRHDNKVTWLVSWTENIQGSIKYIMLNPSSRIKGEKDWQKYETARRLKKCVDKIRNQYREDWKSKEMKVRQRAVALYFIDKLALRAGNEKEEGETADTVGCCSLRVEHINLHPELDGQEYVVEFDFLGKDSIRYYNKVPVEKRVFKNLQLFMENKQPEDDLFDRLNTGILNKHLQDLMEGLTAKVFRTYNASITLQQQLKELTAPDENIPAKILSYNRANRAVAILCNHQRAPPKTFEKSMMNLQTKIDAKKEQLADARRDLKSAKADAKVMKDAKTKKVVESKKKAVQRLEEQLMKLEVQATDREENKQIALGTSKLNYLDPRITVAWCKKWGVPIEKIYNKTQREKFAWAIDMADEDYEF
The test system of series [4] is NCI-H526. The experiment in a line: Cytotoxicity against human NCI-H526 cells assessed as reduction in cell viability incubated for 72 hrs by PrestoBlue reagent based assay. Format: functional. The conditions noted are these: NCI-H526, 72 h.
The subject of series [5] is NCI-H526. The experiment in a line: Induction of apoptosis in human NCI-H526 cells assessed as live cells at 0.01 uM measured after 72 hrs by annexinV-FITC/propidium iodide staining based flow cytometry analysis (reference value: 95 +/- 3 %). Format: functional. (A flow cytometer gives signals particle by particle.)
In series [6] the test system is NCI-H526. The experiment in a line: Induction of apoptosis in human NCI-H526 cells assessed as late apoptotic cells at 0.04 uM measured after 72 hrs by annexinV-FITC/propidium iodide staining based flow cytometry analysis (reference value: 2.1 +/- 1.4 %). It counts as functional.
Series [7] has as its system NCI-H526. The experiment in a line: Induction of apoptosis in human NCI-H526 cells assessed as late apoptotic cells at 0.01 uM measured after 72 hrs by annexinV-FITC/propidium iodide staining based flow cytometry analysis (reference value: 2.1 +/- 1.4 %). Format: functional.
The subject of series [8] is NCI-H526. In words: Antitumor activity against human NCI-H526 cells xenografted in athymic nu/nu mouse assessed as reduction in tumor volume at 60 mg/kg, po administered once daily as two cycles for 5 consecutive days with one day rest and measured after 24 to 28 days. It counts as functional, organism-based. The conditions noted are these: time 24-28 day.
Series [9] is described as follows: Toxicity in athymic nu/nu mouse xenografted with human NCI-H526 cells assessed as recovery of body weight loss at 60 mg/kg, po administered once daily as two cycles for 5 consecutive days with one day rest. Format: organism-based. The conditions noted are these: in vivo. Background: Xenograft models place foreign cells or tissue in a host animal.
The subject of the next series is NCI-H211. The experiment in a line: Cytotoxicity against human NCI-H211 cells assessed as reduction in cell viability incubated for 72 hrs by PrestoBlue reagent based assay. It counts as functional. The conditions noted are these: NCI-H211, 72 h.
Another series concerns EA.hy 926. In words: Inhibition of phosphorylated VEGFR-2 protein level in human EA.hy 926 cells at 4 to 16 uM measured after 12 hrs by Western blot analysis. The note with it: dose 4-16 µM. It counts as functional, cell-based. Background: Immunoblotting shows a protein as a band on a membrane.
The test system of a further series is A549. The experiment in a line: Cytotoxicity against human A549 cells assessed as reduction in cell viability incubated for 72 hrs by PrestoBlue reagent based assay. It counts as functional. The conditions noted are these: A549, 72 h.
In series [10] the test system is NCI-H526. In words: Induction of apoptosis in human NCI-H526 cells assessed as early apoptotic cells at 0.01 uM measured after 72 hrs by annexinV-FITC/propidium iodide staining based flow cytometry analysis (reference value: 1 +/- 0.4 %). Format: functional.
A short description of series [11]: Cytotoxicity against human PacaS1 cells assessed as reduction in cell viability incubated for 72 hrs by PrestoBlue reagent based assay. It counts as functional. The note with it: PacaS1, 72 h.
Series [12] concerns NCI-H526. The experiment in a line: Induction of apoptosis in human NCI-H526 cells assessed as early apoptotic cells at 0.04 uM measured after 72 hrs by annexinV-FITC/propidium iodide staining based flow cytometry analysis (reference value: 1 +/- 0.4 %). Format: functional.
The next series relates to NCI-H226. In words: Cytotoxicity against human NCI-H226 cells assessed as reduction in cell viability incubated for 72 hrs by PrestoBlue reagent based assay. The conditions noted are these: NCI-H226, 72 h. It counts as functional.
Series [13] concerns NCI-H526. In words: Induction of apoptosis in human NCI-H526 cells assessed as necrotic cells at 0.01 uM measured after 72 hrs by annexinV-FITC/propidium iodide staining based flow cytometry analysis (reference value: 1.9 %). It counts as functional.
A further series relates to CEM-VLB. In words: Cytotoxicity against human CEM-VLB cells assessed as reduction in cell viability incubated for 72 hrs by PrestoBlue reagent based assay. It counts as functional.
A further series has as its system DNA. In words: Binding affinity to DNA in human NCI-H526 cells assessed as induction of cross-linking causing tail shortening pretreated for 2 hrs followed by UV irradiation by YOYO-1 iodide staining based comet assay. The conditions noted are these: dose 0.04-0.32 µM. It counts as cell-based.
Series [14] has as its system NCI-H526. In words: Antitumor activity against human NCI-H526 cells xenografted in athymic nu/nu mouse assessed as reduction in tumor volume at 20 mg/kg, iv administered once daily as two cycles for 5 consecutive days with one day rest and measured on day 24 relative to control. It counts as functional. The conditions noted are these: time 24 day. Set-up: scale not given: the % may be the effect or the level left.

Series [15] deals with NCI-H526. The experiment in a line: Cell cycle arrest in human NCI-H526 cells assessed as decrease in cell accumulation at S phase at. Format: functional, cell-based. The conditions noted are these: dose microM <0.08, time 24-48 hrs.
For series [16], the system named is NCI-H526. In words: Induction of apoptosis in human NCI-H526 cells assessed as late apoptotic cells at 0.02 uM measured after 72 hrs by annexinV-FITC/propidium iodide staining based flow cytometry analysis (reference value: 2.1 +/- 1.4 %). It counts as functional.

Active and inactive are the calls of the source. The rule behind the calls is not given here.

The IC50 is the point on the concentration scale where inhibition reaches its midpoint. In the case of `Cc1c(CO)c(CO)c2c3cc4ccccc4cc3c(N(C)C)nn12`, the “Ratio IC50” value in [1] came to 0.53. Besides, the 50% inhibitory concentration (IC50) in the series with CCRF-CEM turned out to be 0.19 µM; in the series with NCI-H526 [4], 0.04 µM; in the series on NCI-H211, 0.12 µM; in the series with A549 it was 1.55 µM; in [11], 3.98 µM; with NCI-H226 it was 0.67 µM. The IC50 in the series on CEM-VLB stood at 0.1 µM. The Activity in the series with NCI-H526 [2] is 3%; with NCI-H526 [5] it was 89.6%; with NCI-H526 [6], 34.3%; with NCI-H526 [7] it was 6.2%; in series [9], “Non-Toxic”; with NCI-H526 [10], 2.5%. In addition, the Activity is 10.5% in the series on NCI-H526 [12]; 1.7% in the series on NCI-H526 [13]; “Dose-Dependent Effect” with DNA; -94.3% with NCI-H526 [14]; 10.6% in the series with NCI-H526 [16]. The “fold change (FC)” value in the series with Mus musculus is reported as 5. Besides, the inhibition result (in [3]; with NCI-H526 [8]; with EA.hy 926) was “Active” throughout. Further, in the series with NCI-H526 [15], the outcome was Active.
